# Reference: patent publication US12187705B2, “Heteroaryl-triazole and heteroaryl-tetrazole compounds as pesticides” (Bayer Aktiengesellschaft, priority 2018, dated 2025)
# Experiments:
# Assay type in all cases: in vivo
# Ctenocephalides felis [1] = test: Ctenocephalides felis in-vitro contact test adult cat flea; details: 5 μg/cm^2 (=500 g/ha), after 48 hours
# Procedure: Ctenocephalides felis—In-Vitro Contact Test Adult Cat Flea
# 9 mg compound is solved in 1 ml acetone and diluted with acetone to the desired concentration. 250 μl of the test solution is filled in 25 ml glass test tubes and homogeneously distributed on the inner walls by rotation and tilting on a shaking device (2 h at 30 rpm). With a compound concentration of 900 ppm, an inner surface of 44.7 cm^2 and a homogeneous distribution, a dose of 5 μg/cm^2 is achieved.
# After the solvent has evaporated, each test tube is filled with 5-10 adult cat fleas (Ctenocephalides felis), closed with a perforated lid and incubated in a lying position at room temperature and relative humidity. After 48 hours efficacy is determined. The fleas are patted on the ground of the tubes and are incubated on a heating plate at 45-50° C. for at most 5 minutes. Immotile or uncoordinated moving fleas, which are not able to escape the heat by climbing upwards, are marked as dead or moribund.
# An efficacy of 100% means all fleas are dead or moribund; 0% means no fleas are dead or moribund.
# Boophilus microplus = Boophilus microplus injection test; details: 20 μg/animal, egg deposition after 7 days; for pest or weed control at 0.02 mg: Rhipicephalus microplus, 168 h, read-out: efficacy (infertile eggs)
# Procedure: Boophilus microplus—Injection Test
# (§1) Solvent: dimethyl sulfoxide
# To produce a suitable preparation of active compound, 10 mg of active compound are dissolved in 0.5 ml solvent, and the concentrate is diluted with solvent to the desired concentration.
# Five adult engorged female ticks (Boophilus microplus) are injected with 1 μl compound solution into the abdomen. The ticks are transferred into replica plates and incubated in a climate chamber.
# After 7 days egg deposition of fertile eggs is monitored. Eggs where fertility is not visible are stored in a climate chamber till hatching after about 42 days. An efficacy of 100% means all eggs are infertile; 0% means all eggs are fertile.
# Diabrotica balteata = Diabrotica balteata spray test; details: 160 μg/well, wheat seeds, after 7 days; for pest or weed control at 160 µg/disc, 160 µg/well: Diabrotica balteata, 168 h, read-out: efficacy (seedlings grown)
# Procedure: Diabrotica balteata—Spray Test
# (§2) To produce a suitable preparation of active compound, 1 part by weight of active compound is mixed with the stated amount of solvent, and the concentrate is diluted with water, containing an emulsifier concentration of 1000 ppm, to the desired concentration. Further test concentrations are prepared by dilution with emulsifier containing water.
# Soaked wheat seeds (Triticum aestivum) are placed in a multiple well plate filled with agar and some water and are incubated for 1 day to germinate (5 seeds per well). The germinated wheat seeds are sprayed with a test solution containing the desired concentration of the active ingredient. Afterwards each unit is infected with 10-20 larvae of the banded cucumber beetle (Diabrotica balteata).
# After 7 days efficacy in % is determined. 100% means all the seedlings have grown up like in the untreated, uninfected control; 0% means none of the seedlings have grown.
# Spodoptera frugiperda = Spodoptera frugiperda spray test; details: in Zea mays, 168 h
# Procedure: Spodoptera frugiperda—Spray Test
# as §2, with “solvents” for “solvent,”, “and” for “and the concentrate”
# Maize (Zea mays) leaf sections are sprayed with a preparation of the active ingredient of the desired concentration. Once dry, the leaf sections are infested with fall armyworm larvae (Spodoptera frugiperda).
# After 7 days mortality in % is determined. 100% means all caterpillars have been killed and 0% means none of the caterpillars have been killed.
# Ctenocephalides felis [2] = test: Ctenocephalides felis oral test; details: Ctenocephalides felis, in Bos taurus, po, 48 h
# Procedure: Ctenocephalides felis—Oral Test
# as §1
# To produce a suitable preparation of active compound, 10 mg of active compound are dissolved in 0.5 ml solvent, and the concentrate is diluted with cattle blood to the desired concentration.
# Approximately 20 adult unfed cat fleas (Ctenocephalides felis) are placed in flea chambers. The blood chamber, sealed with parafilm on the bottom, are filled with cattle blood supplied with compound solution and placed on the gauze covered top of the flea chamber, so that the fleas are able to suck the blood. The blood chamber is heated to 37° C. whereas the flea chamber is kept at room temperature.
# After 2 days mortality in % is determined. 100% means all the fleas have been killed; 0% means none of the fleas have been killed.
# [3] = system: Aedes aegypti strain MONHEIM; test: Aedes aegypti test (AEDSAE surface treatment & contact assay); details: 24 hours after contact, read-out: efficacy (mortality); for mortality at 20 mg/m2: surface concentration 20 mg/m^2, 30 minutes exposure; for mortality at 4 mg/m2: surface concentration 4 mg/m^2, 30 minutes exposure
# Procedure: Aedes aegypti Test (AEDSAE Surface Treatment & Contact Assay)
# (§3) Solvent: Aceton+2000 ppm rapeseed oil methyl ester (RME)
# (§4) In order to produce a sufficient, active ingredient containing solution it is necessary to solve the test-compound in the solvent-mix (Acetone at 2 mg/ml/RME 2000 ppm). This solution is pipetted onto a glazed tile and after evaporation of the Acetone, adult mosquitoes of the species Aedes aegypti strain MONHEIM are placed onto the dried surface. The exposure time is 30 minutes.
# (§5) Mortality in percent (%) is determined 24 hours after contact to the treated surface. 100% mortality means that all test-insects are dead, whereas 0% means that not a single insect died.
# Myzus persicae = Myzus persicae oral test; details: 120 h
# Procedure: To produce a suitable preparation of active compound, 1 part by weight of active compound is mixed with the stated amount of solvent, and the concentrate is diluted with water to the desired concentration.
# 50 μl compound solution is filled in microtiter plates and 150 μl IPL41 insect medium (33%+15% sugar) is added to obtain a total volume of 200 μl per well. Afterwards the plates are sealed with parafilm through which a mixed population of the green peach aphid (Myzus persicae) can suck on the compound preparation.
# After 5 days mortality in % is determined. 100% means all aphids have been killed and 0% means none of the aphids have been killed.
# Nezara viridula = Nezara viridula spray test; details: in Hordeum vulgare, 96 h
# Procedure: Nezara viridula—Spray Test
# as §2
# Barley plants (Hordeum vulgare) infested with larvae of the southern green stink bug (Nezara viridula) are sprayed with a test solution containing the desired concentration of the active ingredient.
# After 4 days mortality in % is determined. 100% means all the stink bugs have been killed; 0% means none of the stink bugs have been killed.
# [4] = system: Culex quinquefasciatus strain P00; test: Culex quinquefasciatus test (CULXFA surface treatment & contact assay); details: 24 hours after contact, read-out: efficacy (mortality); for mortality at 4 mg/m2: surface concentration 4 mg/m^2, 30 minutes exposure; for mortality at 20 mg/m2: surface concentration 20 mg/m^2, 30 minutes exposure
# Procedure: Culex quinquefasciatus Test (CULXFA Surface Treatment & Contact Assay)
# as §3
# as §4, with “Culex quinquefasciatus” for “Aedes aegypti”, “P00” for “MONHEIM”
# as §5
compound,measurement,setting,value
CC(NC(=O)c1cc(Cl)cc(S(=O)(=O)C(F)(F)F)c1)c1ncnn1-c1ccc(Cl)cn1 (stereo not drawn) [Example I-073],efficacy (fleas dead or moribund),Ctenocephalides felis [1],90%
same,efficacy (infertile eggs),Boophilus microplus,100%
same,efficacy (seedlings grown),Diabrotica balteata,100%
CC(NC(=O)c1cc(Cl)cc(-n2ccc(C(F)(F)F)n2)c1)c1ncnn1-c1ncccn1 (stereo not drawn) [Example I-094],"pest or weed control at 160 µg/disc, 160 µg/well",Diabrotica balteata,100%
same,mortality at 500 g/ha,Spodoptera frugiperda,83%
C[C@@H](NC(=O)c1cc(Cl)cc(S(=O)(=O)C(F)(F)F)c1)c1ncnn1-c1nccs1 [Example I-077],pest or weed control at 0.02 mg,Boophilus microplus,100%
same,mortality at 100 ppm,Ctenocephalides felis [2],90%
same,"pest or weed control at 160 µg/disc, 160 µg/well",Diabrotica balteata,100%
same,mortality at 500 g/ha,Spodoptera frugiperda,100%
same,mortality at 20 mg/m2,[3],90 to 100%
CC(NC(=O)c1cc(Cl)cc(S(=O)(=O)C(F)(F)F)c1)c1ncnn1-c1ncc(Cl)cn1 (stereo not drawn) [Example I-069],efficacy (fleas dead or moribund),Ctenocephalides felis [1],100%
same,efficacy (infertile eggs),Boophilus microplus,100%
same,efficacy (seedlings grown),Diabrotica balteata,100%
CC(NC(=O)c1cc(Cl)cc(S(=O)(=O)C(F)(F)F)c1)c1ncnn1-c1ccc(C(F)(F)F)cn1 (stereo not drawn) [Example I-072],efficacy (infertile eggs),Boophilus microplus,100%
same,efficacy (seedlings grown),Diabrotica balteata,100%
CC(NC(=O)c1cc(Cl)cc(-n2cccn2)c1)c1ncnn1-c1ncccn1 (stereo not drawn) [Example I-048],pest or weed control at 0.02 mg,Boophilus microplus,100%
same,mortality at 100 ppm,Ctenocephalides felis [2],100%
same,"pest or weed control at 160 µg/disc, 160 µg/well",Diabrotica balteata,100%
same,mortality at 4 ppm,Myzus persicae,100%
same,mortality at 20 mg/m2,[3],90 to 100%
"C[C@H](NC(=O)c1cc(C(F)(F)F)nn1-c1ccc(F)cc1)c1ncnn1-c1ncccn1 [Example I-052, 1-(4-fluorophenyl)-N-{(1S)-1-[1-(pyrimidin-2-yl)-1H-1,2,4-triazol-5-yl]ethyl}-3-(trifluoromethyl)-1H-pyrazole-5-carboxamide]",pest or weed control at 0.02 mg,Boophilus microplus,100%
same,mortality at 100 ppm,Ctenocephalides felis [2],100%
C[C@@H](NC(=O)c1cc(Cl)cc(S(C)(=O)=O)c1)c1nc(C(F)(F)F)nn1-c1ccc(C#N)cn1 [Example I-110],mortality at 500 g/ha,Nezara viridula,100%
same,mortality at 500 g/ha,Spodoptera frugiperda,100%
CC(NC(=O)c1cc(Cl)cc(S(=O)(=O)C(F)(F)F)c1)c1ncnn1-c1cc(C#N)ccn1 (stereo not drawn) [Example I-075],efficacy (fleas dead or moribund),Ctenocephalides felis [1],90%
same,efficacy (infertile eggs),Boophilus microplus,100%
same,efficacy (seedlings grown),Diabrotica balteata,100%
C[C@H](NC(=O)c1cc(Cl)cc(S(C)(=O)=O)c1)c1ncnn1-c1ccc(SC(F)(F)F)cn1 [Example I-064],"pest or weed control at 160 µg/disc, 160 µg/well",Diabrotica balteata,100%
same,mortality at 500 g/ha,Spodoptera frugiperda,100%
CC(NC(=O)c1cc(Cl)cc(S(=O)(=O)C(C)(C)C)c1)c1ncnn1-c1ncccn1 (stereo not drawn) [Example I-080],efficacy (infertile eggs),Boophilus microplus,80%
C[C@@H](NC(=O)c1cc(F)cc(C2CC2)c1)c1ncnn1-c1ccc(C#N)cn1 [Example I-113],"pest or weed control at 160 µg/disc, 160 µg/well",Diabrotica balteata,100%
same,mortality at 500 g/ha,Nezara viridula,90%
same,mortality at 500 g/ha,Spodoptera frugiperda,100%
C[C@H](NC(=O)c1cc(Cl)cc(S(C)(=O)=O)c1)c1ncnn1-c1ccc(OC(F)F)cn1 [Example I-063],"pest or weed control at 160 µg/disc, 160 µg/well",Diabrotica balteata,100%
same,mortality at 4 ppm,Myzus persicae,100%
same,mortality at 500 g/ha,Nezara viridula,100%
same,mortality at 500 g/ha,Spodoptera frugiperda,100%
same,mortality at 4 mg/m2,[3],80 to 100%
same,mortality at 20 mg/m2,[3],90 to 100%
same,mortality at 4 mg/m2,[4],80 to 100%
same,mortality at 20 mg/m2,[4],80 to 100%
C[C@@H](NC(=O)c1cc(-c2ccc(F)cc2)cc(C(F)(F)F)c1)c1ncnn1-c1ccc(C#N)cn1 [Example I-123],"pest or weed control at 160 µg/disc, 160 µg/well",Diabrotica balteata,100%
same,mortality at 500 g/ha,Spodoptera frugiperda,100%
C[C@@H](NC(=O)c1cc(Cl)cc(S(C)(=O)=O)c1)c1ncnn1-c1ccc(C(F)(F)F)cn1 [Example I-089],"pest or weed control at 5 µg/cm2, 5 µg/cm2","Ctenocephalides felis [1]; Ctenocephalides felis, read-out: efficacy (fleas dead or moribund)",100%
same,mortality at 100 ppm,Ctenocephalides felis [2],100%
same,"pest or weed control at 160 µg/disc, 160 µg/well",Diabrotica balteata,100%
same,mortality at 500 g/ha,Nezara viridula,100%
same,mortality at 500 g/ha,Spodoptera frugiperda,100%
same,mortality at 4 mg/m2,[3],80 to 100%
same,mortality at 20 mg/m2,[3],90 to 100%
same,mortality at 4 mg/m2,[4],80 to 100%
same,mortality at 20 mg/m2,[4],80 to 100%
C[C@@H](NC(=O)c1cc(Cl)cc(S(=O)(=O)C(F)(F)F)c1)c1ncnn1-c1ccnc(Cl)c1 [Example I-076],pest or weed control at 0.02 mg,Boophilus microplus,100%
same,mortality at 100 ppm,Ctenocephalides felis [2],100%
